For 23 compounds, T/C results are on record in PubChem BioAssay AID256 (DTP/NCI, 2004).

Where “and” joins values, the source holds several entries; their conditions need not be identical. Identical values can stand only once. Toxic doses and inconclusive results are not listed.

The assay concerns CD2F1 mice, L1210 leukemia ip, survival T/C. Briefly: NCI In Vivo Anticancer Drug Screen. Data for tumor model L1210 Leukemia (intraperitoneal) in CD2F1 (CDF1) mice. Particulars: endpoint: mean survival time, higher = longer survival. Put shortly: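 Ratio T/C, where T is the treated-group value and C the vehicle-dosed control value, from mice implanted with a transplantable tumor.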

Setting [1] is: dose: 100.0 mg/kg/injection, schedule: Q01DX001 (ip), vehicle: saline with Tween-80.
Where [2] appears, read: dose: 200.0 mg/kg/injection, schedule: Q01DX001 (ip), vehicle: saline with Tween-80.
The mark [3] stands for this setting: dose: 400.0 mg/kg/injection, schedule: Q01DX001 (ip), vehicle: saline with Tween-80.
Where [4] appears, read: dose: 100.0 mg/kg/injection, schedule: Q04DX003 (ip), vehicle: saline with Tween-80.
The mark [5] stands for this setting: dose: 200.0 mg/kg/injection, schedule: Q04DX003 (ip), vehicle: saline with Tween-80.
[6] abbreviates: dose: 400.0 mg/kg/injection, schedule: Q04DX003 (ip), vehicle: saline with Tween-80.
Where [7] appears, read: dose: 50.0 mg/kg/injection, schedule: Q01DX009 (ip), vehicle: saline with Tween-80.
Setting [8] is: dose: 100.0 mg/kg/injection, schedule: Q01DX009 (ip), vehicle: saline with Tween-80.
Setting [9] is: dose: 200.0 mg/kg/injection, schedule: Q01DX009 (ip), vehicle: saline with Tween-80.
Setting [10] is: dose: 100.0 mg/kg/injection, schedule: Q01DX009 (ip), vehicle: saline.
The mark [11] stands for this setting: dose: 200.0 mg/kg/injection, schedule: Q01DX009 (ip), vehicle: saline.
The mark [12] stands for this setting: dose: 400.0 mg/kg/injection, schedule: Q01DX009 (ip), vehicle: saline with Tween-80.
Setting [13] is: dose: 12.5 mg/kg/injection, schedule: Q04DX002 (ip), vehicle: saline with Tween-80.
Setting [14] is: dose: 25.0 mg/kg/injection, schedule: Q04DX002 (ip), vehicle: saline with Tween-80.
[15] abbreviates: dose: 50.0 mg/kg/injection, schedule: Q04DX002 (ip), vehicle: saline with Tween-80.
Where [16] appears, read: dose: 50.0 mg/kg/injection, schedule: Q01DX009 (ip), vehicle: Klucel (hydroxypropylcellulose) (HPC).
Where [17] appears, read: dose: 100.0 mg/kg/injection, schedule: Q01DX009 (ip), vehicle: Klucel (hydroxypropylcellulose) (HPC).
Where [18] appears, read: dose: 200.0 mg/kg/injection, schedule: Q01DX009 (ip), vehicle: Klucel (hydroxypropylcellulose) (HPC).
Where [19] appears, read: dose: 100.0 mg/kg/injection, schedule: Q04DX003 (ip), vehicle: saline.
[20] abbreviates: dose: 200.0 mg/kg/injection, schedule: Q04DX003 (ip), vehicle: saline.
Where [21] appears, read: dose: 400.0 mg/kg/injection, schedule: Q04DX003 (ip), vehicle: saline.

For `BrCCN(CCBr)c1ccc2c3c(cccc13)-c1ccccc1-2`, the T/C was 113 % of control (dose: 1.5 mg/kg/injection, schedule: Q01DX Z (ip), vehicle: saline); 98 % of control (dose: 2.0 mg/kg/injection, schedule: Q01DX Z (ip), vehicle: saline); 110 % of control (dose: 3.2 mg/kg/injection, schedule: Q01DX Z (ip), vehicle: saline); 121 % of control (dose: 5.0 mg/kg/injection, schedule: Q01DX Z (ip), vehicle: saline).
Take `FC(F)Cc1ccccc1`: the T/C was 100 % of control under setting [1], 94 % of control under setting [2] and 100 % of control under setting [3].
As to `[Br][Pt].[NH-]CC[N-]CC[NH-]`, the T/C was 98 % of control (dose: 12.5 mg/kg/injection, schedule: Q01DX009 (ip), vehicle: water) and 93 % of control (dose: 25.0 mg/kg/injection, schedule: Q01DX009 (ip), vehicle: water).
As for `COC(=O)c1cc(C(=O)OC)c(C(=O)OC)cc1C(=O)OC`, the T/C is 97 % of control under setting [4], 92 % of control under setting [5] and 89 % of control under setting [6].
As for `CCOC(=O)CC(O)c1ccccc1` (stereo unspecified), the T/C runs as follows: under setting [7], 102 % of control; under setting [8], 102 % of control; under setting [9], 98 % of control.
With `O=C(Nc1cccc([N+](=O)[O-])c1)c1cc2ccccc2cc1O`, the T/C is, setting by setting: under setting [10], 101 % of control; under setting [4], 95 % of control; under setting [11], 97 % of control; under setting [5], 95 % of control; (dose: 400.0 mg/kg/injection, schedule: Q01DX009 (ip), vehicle: saline) 98 % of control; under setting [6], 87 % of control.
As to `C=CCOCC1CO1` (stereo unspecified), the T/C (dose: 12.5 mg/kg/injection, schedule: Q01DX009 (ip), vehicle: saline) was 102 % of control and 103 % of control; the T/C (dose: 25.0 mg/kg/injection, schedule: Q01DX009 (ip), vehicle: saline) was 102 % of control and 111 % of control; the T/C under setting [7] is 100 % of control; the T/C (dose: 50.0 mg/kg/injection, schedule: Q01DX009 (ip), vehicle: saline) is 98 % of control and 108 % of control; the T/C under setting [8] was 97 % of control; the T/C under setting [10] was 94 % of control and 104 % of control. Besides, the T/C was 103 % of control under setting [9]; 114 % of control and 105 % of control under setting [11]; 105 % of control under setting [12].
In the case of `CC(C)(C)C1(C#N)C(=O)C2CCCCC21` (stereo unspecified), the T/C under setting [13] is 105 % of control, the T/C under setting [14] is 97 % of control and the T/C under setting [15] was 94 % of control.
On to `O=c1cc(NCCCCc2ccccc2)[nH]c(=O)[nH]1`, for which the T/C under setting [1] was 94 % of control, the T/C under setting [2] is 91 % of control and the T/C under setting [3] was 91 % of control.
On to `O=C(C=P(c1ccccc1)(c1ccccc1)c1ccccc1)c1ccccc1`, for which the T/C under setting [4] is 97 % of control, the T/C under setting [5] is 101 % of control and the T/C under setting [6] is 89 % of control.
Regarding `C/C(=N/O)C1=C(O)C(Cc2ccccc2)NC1=O` (stereo unspecified), the T/C by setting is: under setting [13], 100 % of control; under setting [14], 121 % of control; under setting [15], 103 % of control.
As to `O=C(/C=C/c1ccccc1)N/N=C/c1ccccc1Cl`, the T/C is, setting by setting: under setting [16], 105 % of control; under setting [17], 105 % of control; under setting [18], 105 % of control.
Take `Cc1nc(N)[nH]c(=O)c1CCCN`: the T/C was 95 % of control under setting [19], 98 % of control under setting [20] and 95 % of control under setting [21].
On to `O=[N+]([O-])c1ccc(N/N=C/c2cccc(CO)c2)c([N+](=O)[O-])c1`, for which the T/C was 94 % of control under setting [19], 88 % of control under setting [20] and 96 % of control under setting [21].
Regarding `COc1ccc2c(NCCCCCCNc3c4ccccc4nc4cc(OC)ccc34)c3ccccc3nc2c1`, the T/C was 102 % of control (dose: 0.07 mg/kg/injection, schedule: Q01DX009 (ip), vehicle: other); 102 % of control (dose: 0.15 mg/kg/injection, schedule: Q01DX009 (ip), vehicle: other); 124 % of control (dose: 0.16 mg/kg/injection, schedule: Q01DX009 (ip), vehicle: lactic acid); 110 % of control (dose: 0.31 mg/kg/injection, schedule: Q01DX009 (ip), vehicle: lactic acid); 105 % of control (dose: 0.31 mg/kg/injection, schedule: Q01DX009 (ip), vehicle: other); 113 % of control (dose: 0.62 mg/kg/injection, schedule: Q01DX009 (ip), vehicle: lactic acid). The T/C (dose: 0.63 mg/kg/injection, schedule: Q01DX009 (ip), vehicle: other) is 100 % of control; the T/C (dose: 1.25 mg/kg/injection, schedule: Q01DX009 (ip), vehicle: lactic acid) is 121 % of control and 122 % of control; the T/C (dose: 1.25 mg/kg/injection, schedule: Q01DX009 (ip), vehicle: other) is 107 % of control; the T/C (dose: 2.5 mg/kg/injection, schedule: Q01DX009 (ip), vehicle: lactic acid) is 122 % of control; the T/C (dose: 5.0 mg/kg/injection, schedule: Q01DX009 (ip), vehicle: lactic acid) is 116 % of control; the T/C (dose: 10.0 mg/kg/injection, schedule: Q01DX009 (ip), vehicle: lactic acid) is 122 % of control.
For `c1cc2nc(c1)CSCCCCCCSC2`, the T/C reads like this: under setting [8], 91 % of control; under setting [9], 90 % of control; under setting [12], 91 % of control.
On to `NC(=S)N/N=C\c1nccc2c(N)cccc12`, for which the T/C runs as follows: (dose: 12.5 mg/kg/injection, schedule: Q01DX009 (ip), vehicle: saline with Tween-80) 124 % of control; (dose: 25.0 mg/kg/injection, schedule: Q01DX009 (ip), vehicle: saline with Tween-80) 124 % of control; under setting [7], 161 % of control; (dose: 75.0 mg/kg/injection, schedule: Q01DX009 (ip), vehicle: saline with Tween-80) 121 % of control and 124 % of control.
Take `O=C(O)c1ccc(CCCBr)cc1`: the T/C (dose: 100.0 mg/kg/injection, schedule: Q04DX003 (ip), vehicle: other) is 107 % of control; the T/C (dose: 200.0 mg/kg/injection, schedule: Q04DX003 (ip), vehicle: other) is 106 % of control; the T/C (dose: 400.0 mg/kg/injection, schedule: Q04DX003 (ip), vehicle: other) is 101 % of control.
For the compound `Cn1ccccc1=S`, the T/C is, setting by setting: under setting [1], 108 % of control; under setting [2], 107 % of control; under setting [3], 103 % of control.
Regarding `O=C(N/N=C/c1ccc(O)cc1O)c1cccnc1`, the T/C runs as follows: (dose: 6.25 mg/kg/injection, schedule: Q01DX009 (ip), vehicle: olive oil, sesame oil, peanut oil) 102 % of control; (dose: 12.5 mg/kg/injection, schedule: Q01DX009 (ip), vehicle: olive oil, sesame oil, peanut oil) 98 % of control; (dose: 25.0 mg/kg/injection, schedule: Q01DX009 (ip), vehicle: olive oil, sesame oil, peanut oil) 98 % of control; (dose: 50.0 mg/kg/injection, schedule: Q01DX009 (ip), vehicle: olive oil, sesame oil, peanut oil) 98 % of control; (dose: 100.0 mg/kg/injection, schedule: Q01DX009 (ip), vehicle: olive oil, sesame oil, peanut oil) 100 % of control.
Consider `CC(=O)C1CCOC1=O` (stereo unspecified), for which the T/C by setting is: under setting [19], 96 % of control; under setting [20], 104 % of control; under setting [21], 98 % of control.
In the case of `O=C1/C(=C/c2ccccc2)CCSc2ccccc21`, the T/C was 90 % of control under setting [1], 94 % of control under setting [2] and 90 % of control under setting [3].
Turning to `COc1ccc2c(oc(=O)c3c(Cl)nc(C)c(C)c32)c1OC`, the T/C is 102 % of control (dose: 25.0 mg/kg/injection, schedule: Q01DX009 (ip), vehicle: Klucel (hydroxypropylcellulose) (HPC)); 95 % of control under setting [16]; 93 % of control under setting [17]; 93 % of control under setting [18].
